Experimental data as given in patent US20240368139A1, “NOVEL MODULATORS OF EHMT1 AND EHMT2 AND THERAPEUTIC USE THEREOF” (Tango Therapeutics, Inc., priority 2021, published 2024).

How the values were obtained:
H3K9me2 in HCT116 cells = experiment: HCT116 H3K9me2 in-cell western assay; assay type: cell-based; details: Homo sapiens, HCT-116, 72 h, HCT116 cells, 72 hours incubation; read-out: H3K9me2 ICW IC50
Outline: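 HCT116 cells (2,000/well) were treated for 72 h at 37° C, 5% CO2, with ten two-fold dilutions from 10 μM in duplicate. After PFA fixation, cells were stained overnight at 4° C with anti-H3K9me2, then with an 800 CW secondary plus DRAQ5.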

human EHMT2 913-1193 = target: T1, human EHMT2 913-1193 (Homo sapiens, UniProt Q96KQ7); experiment: EHMT2 enzyme assay on histone peptide substrate (3H-SAM SPA); details: EHMT2 IC50, recombinant human EHMT2 913-1193, histone peptide substrate
T1 sequence (Q96KQ7 913-1193): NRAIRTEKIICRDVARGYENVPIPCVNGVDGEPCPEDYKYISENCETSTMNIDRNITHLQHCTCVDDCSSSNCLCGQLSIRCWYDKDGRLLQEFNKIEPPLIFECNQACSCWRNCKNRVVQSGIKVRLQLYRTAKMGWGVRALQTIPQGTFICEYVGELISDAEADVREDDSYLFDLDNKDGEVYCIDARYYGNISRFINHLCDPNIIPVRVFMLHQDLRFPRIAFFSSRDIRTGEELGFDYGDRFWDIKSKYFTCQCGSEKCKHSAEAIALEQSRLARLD

human EHMT1 982-1266 = target: T2, human EHMT1 982-1266 (Homo sapiens, UniProt Q9H9B1); experiment: EHMT1 enzyme assay on histone peptide substrate (3H-SAM SPA); details: EHMT1 IC50, recombinant human EHMT1 982-1266, histone peptide substrate
T2 sequence (Q9H9B1 982-1266): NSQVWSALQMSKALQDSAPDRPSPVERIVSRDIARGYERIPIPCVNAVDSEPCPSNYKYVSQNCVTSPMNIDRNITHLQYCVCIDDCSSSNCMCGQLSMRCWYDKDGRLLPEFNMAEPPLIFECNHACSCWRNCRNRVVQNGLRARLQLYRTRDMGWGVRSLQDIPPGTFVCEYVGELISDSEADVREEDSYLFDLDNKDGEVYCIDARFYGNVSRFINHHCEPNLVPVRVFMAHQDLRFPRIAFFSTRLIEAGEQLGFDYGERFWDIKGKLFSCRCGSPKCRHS

Row | Compound | IC50 (H3K9me2 in HCT116 cells) | IC50 (human EHMT2 913-1193) | IC50 (human EHMT1 982-1266)
1 | CNc1nc(Nc2cc3c(c(C4=CCNCCC4)c2)OCC3)nc(C)c1F [Compound 277] | 100 to 500 nM | 100 to 500 nM | 100 to 500 nM
2 | CNc1cc(C)nc(Nc2cc3c(c(C4=CCN(C)CCC4)c2)OCC3)c1 [Compound 278] | 100 to 500 nM | 100 to 500 nM | < 100 nM
3 | CNc1nc(Nc2cc3c(c(C4=CCNCCC4)c2)OCO3)nc(C)c1F [Compound 279] | 100 to 500 nM | 500 to 2000 nM | 100 to 500 nM
4 | CNc1cc(C)nc(Nc2cc3c(c(C4=CCN(C)CCC4)c2F)OCC3)n1 [Compound 280, N2-[6-fluoro-7-(1-methyl-2,3,4,7-tetrahydroazepin-5-yl)-2,3-dihydrobenzofuran-5-yl]-N4,6-dimethyl-pyrimidine-2,4-diamine] | < 100 nM | < 100 nM | < 100 nM
5 | [2H]C([2H])([2H])Nc1cc(C)nc(Nc2cc3c(c(C4=CCNCCC4)c2)OCO3)n1 [Compound 281] | < 100 nM | < 100 nM | < 100 nM
6 | [2H]C([2H])([2H])Nc1cc(C)nc(Nc2cc3c(c(C4=CCN(C)CCC4)c2)OCCO3)n1 [Compound 282] | 100 to 500 nM | 500 to 2000 nM | < 100 nM
7 | [2H]C([2H])([2H])Nc1cc(C)nc(Nc2cc3c(c(C4=CCNCCC4)c2)OCCO3)n1 [Compound 283] | < 100 nM | < 100 nM | < 100 nM
8 | CNc1nc(Nc2cc3c(c(C4=CCNCCC4)c2)OCC3)nc(C)c1Cl [Compound 284] | 100 to 500 nM | 500 to 2000 nM | 100 to 500 nM
9 | [2H]C([2H])([2H])CNc1cc(C)nc(Nc2cc3c(c(C4=CCNCCC4)c2)OCCO3)n1 [Compound 285] | 100 to 500 nM | 100 to 500 nM | 100 to 500 nM
10 | CNc1nc(Nc2cc3c(c(C4=CCN(C)CCC4)c2)OCC3)nc(C)c1C [Compound 286] | 100 to 500 nM | 100 to 500 nM | < 100 nM
11 | CNc1nc(Nc2cc3c(c(C4=CCNCCC4)c2)OCC3)nc(C)c1C [Compound 287] | < 100 nM | < 100 nM | < 100 nM
12 | CNc1cc(C)nc(Nc2cc3c(c(C4=CCNCCC4)c2)OCC3)c1 [Compound 288] | 100 to 500 nM | < 100 nM | < 100 nM
13 | Cc1cc(NCC2CCCO2)nc(Nc2cc3c(c(C4=CCN(C)CCC4)c2)OCC3)n1 (stereo not drawn) [Compound 292] | 100 to 500 nM | 100 to 500 nM | 100 to 500 nM
14 | COCCCNc1cc(C)nc(Nc2cc3c(c(C4=CCNCCC4)c2)OCC3)c1 [Compound 293] | 500 to 2000 nM | 100 to 500 nM | 100 to 500 nM
15 | Cc1cc(NCC2CCCO2)nc(Nc2cc3c(c(C4=CCNCCC4)c2)OCC3)n1 (stereo not drawn) [Compound 294] | 100 to 500 nM | 100 to 500 nM | < 100 nM
16 | COCCCNc1cc(C)nc(Nc2cc3c(c(C4=CCN(C)CCC4)c2)OCC3)c1 [Compound 295] | 500 to 2000 nM | 500 to 2000 nM | 100 to 500 nM
17 | [2H]C([2H])([2H])CNc1cc(C)nc(Nc2cc3c(c(C4=CCN(C)CCC4)c2)OCC3)n1 [Compound 296] | 100 to 500 nM | 100 to 500 nM | < 100 nM
18 | COCCNc1cc(C)nc(Nc2cc3c(c(C4=CCN(C)CCC4)c2)OCC3)c1 [Compound 297] | 500 to 2000 nM | 500 to 2000 nM | 100 to 500 nM
19 | COCCCNc1cc(C)nc(Nc2cc3c(c(C4=CCN(C)CCC4)c2)OCC3)n1 [Compound 298] | 100 to 500 nM | 100 to 500 nM | < 100 nM
20 | Cc1cc(NCC2CCOCC2)nc(Nc2cc3c(c(C4=CCN(C)CCC4)c2)OCC3)n1 [Compound 299] | 100 to 500 nM | 100 to 500 nM | < 100 nM

Row | Compound | IC50 (H3K9me2 in HCT116 cells) | IC50 (human EHMT2 913-1193) | IC50 (human EHMT1 982-1266)
21 | [2H]C([2H])([2H])CNc1cc(C)nc(Nc2cc3c(c(C4=CCNCCC4)c2)OCC3)n1 [Compound 300] | 100 to 500 nM | < 100 nM | < 100 nM
22 | [2H]C([2H])([2H])Nc1cc(C)nc(Nc2cc3c(c(C4=CCN(C)CCC4)c2)OCC3)n1 [Compound 301] | 100 to 500 nM | < 100 nM | < 100 nM
23 | [2H]Cc1cc(NC)nc(Nc2cc3c(c(C4=CCNCCC4)c2)OCC3)n1 [Compound 302] | < 100 nM | < 100 nM | < 100 nM
24 | [2H]Cc1cc(NC)nc(Nc2cc3c(c(C4=CCN(C)CCC4)c2)OCC3)n1 [Compound 303] | < 100 nM | < 100 nM | < 100 nM
25 | CNc1cc(Nc2cc3c(c(C4=CCNCCC4)c2)OCC3)nc(C)c1F [Compound 304] | 100 to 500 nM | < 100 nM | < 100 nM
26 | COCCNc1cc(C)nc(Nc2cc3c(c(C4=CCNCCC4)c2)OCC3)c1 [Compound 305] | 500 to 2000 nM | 100 to 500 nM | 100 to 500 nM
27 | [2H]C([2H])([2H])Nc1cc(C)nc(Nc2cc3c(c(C4=CCNCCC4)c2)OCC3)n1 [Compound 306] | < 100 nM | < 100 nM | < 100 nM
28 | CNc1cc(C)nc(Nc2cc3c(c(C4=CCCNCC4C)c2)OCC3)n1 (stereo not drawn) [Compound 307] | 500 to 2000 nM | 500 to 2000 nM | 100 to 500 nM
29 | Cc1cc(NCC2CCOCC2)nc(Nc2cc3c(c(C4=CCNCCC4)c2)OCC3)n1 [Compound 308] | 100 to 500 nM | < 100 nM | < 100 nM
30 | Cc1cc(NCC(F)(F)F)cc(Nc2cc3c(c(C4=CCNCCC4)c2)OCC3)n1 [Compound 309] | 500 to 2000 nM | 500 to 2000 nM | 100 to 500 nM
31 | COCCCNc1cc(C)nc(Nc2cc3c(c(C4=CCNCCC4)c2)OCC3)n1 [Compound 310] | 100 to 500 nM | < 100 nM | < 100 nM
32 | CNc1cc(C)nc(Nc2cc3c(c(C4=CCNCCC4)c2)COC3)n1 [Compound 311] | 100 to 500 nM | 500 to 2000 nM | 100 to 500 nM
33 | Cc1cc(NC2COC2)cc(Nc2cc3c(c(C4=CCN(C)CCC4)c2)OCC3)n1 [Compound 312] | 500 to 2000 nM | 500 to 2000 nM | 100 to 500 nM
34 | Cc1cc(NC2COC2)cc(Nc2cc3c(c(C4=CCNCCC4)c2)OCC3)n1 [Compound 313] | 500 to 2000 nM | 100 to 500 nM | 100 to 500 nM
35 | CNc1cc(C2CC2)nc(Nc2cc3c(c(C4=CCN(C)CCC4)c2)OCC3)n1 [Compound 314] | 100 to 500 nM | 500 to 2000 nM | 100 to 500 nM
36 | CCNc1cc(C)nc(Nc2cc3c(c(C4=CCNCCC4)c2)OCC3)n1 [Compound 315] | 100 to 500 nM | 100 to 500 nM | 100 to 500 nM
37 | CCc1cc(NC)nc(Nc2cc3c(c(C4=CCN(C)CCC4)c2)OCC3)n1 [Compound 316] | 100 to 500 nM | 100 to 500 nM | < 100 nM
38 | CNc1cc(C2CC2)nc(Nc2cc3c(c(C4=CCNCCC4)c2)OCC3)n1 [Compound 317] | < 100 nM | 100 to 500 nM | < 100 nM
39 | Cc1cc(NC2CCC2)nc(Nc2cc3c(c(C4=CCN(C)CCC4)c2)OCC3)n1 [Compound 318] | 100 to 500 nM | 500 to 2000 nM | 100 to 500 nM
40 | CCc1cc(NC)nc(Nc2cc3c(c(C4=CCNCCC4)c2)OCC3)n1 [Compound 319] | < 100 nM | < 100 nM | < 100 nM
